From patent publication US20080234498A1, “Pyrovalerone Analogues and Therapeutic Uses Thereof” (PRESIDENT AND FELLOW OF HARVARD COLLEGE, priority 2003, published 2008)
Structures can show the parent of a compound that is named as a salt. Where two headings read alike, the source gives them in different places. Marks after values point to notes of the source that are not given here.

Assays:
dopamine transporter = target: T1, dopamine transporter (Macaca mulatta, UniProt Q7JHP9); experiment: Dopamine transporter occupancy by PET imaging with [11C]CFT; assay type: in vivo, Rhesus monkeys; conditions: for Brain entry and occupancy of DAT sites (in words): living brain, PET imaging, cerebellum as the negative control; for [11C]CFT with Compound (binding potential) / % Occupancy / % Occupancy, cerebellum levels considered background: rhesus monkey; for [11C]CFT with Compound (binding potential): compound intravenously, PET one hour after administration; for % Occupancy / % Occupancy, cerebellum levels considered background: i.v., one hour; for % Occupancy: from reduced [11C]CFT binding potential vs baseline; for % Occupancy, cerebellum levels considered background: reduced to levels of cerebellum = full occupancy
T1 construct: occupy the dopamine transporter in living brain; from tissue; host or cells: living brain of rhesus monkeys (in vivo PET)
Experimental: As the compounds of the invention are high affinity ligands for the dopamine transporter, we determined whether they occupy the dopamine transporter in living brain within 1 hour of administration. To monitor occupancy of the dopamine transporter, PET imaging was conducted with the high affinity dopamine transporter probe [11C]CFT ([11C]WIN 35,428). Rhesus monkeys were anesthetized with ketamine and xylazine and an indwelling intravenous catheter was placed in a leg vein. DAT density (binding potential) was acquired with [11C]CFT to obtain baseline levels. Immediately following completion of the imaging session, monkeys were administered the test compound intravenously via the indwelling catheter and PET imaging was conducted one hour after administration. Imaging data from the pre- and post-drug session were compared and occupancy was calculated on the basis of reduced [11C]CFT binding potential one hour or longer after administration of the compound. The following table (Table 1) summarizes pilot data from this study.

[1] = target: dopamine transporter (DAT) (Homo sapiens, UniProt Q01959); experiment: Radioreceptor assay, inhibition of (3H)WIN 35,428 binding to the dopamine transporter
Description: Dysfunction of dopamine neurons has been implicated in several neuropsychiatric diseases. Imaging of the dopamine neurons offers important clinical information relevant to diagnosis and therapeutic treatments. Dopamine neurons produce dopamine, release the neurotransmitter and remove the released dopamine with a dopamine transporter protein. Compounds that bind to the dopamine transporter are effective measures of dopamine neurons and can be transformed into imaging agents for PET and for SPECT imaging (see, e.g., Example 70, infra, for use of PET imaging). In identifying a suitable compound for the dopamine transporter, an essential first step is to measure the affinity and selectivity of a candidate at the dopamine transporter. The affinity can be measured by conducting radioreceptor assays. A radiolabeled marker for the transporter, e.g., (^3H)WIN 35,428, is incubated with the unlabeled candidate and a source of the transporter, usually brain striatum. The effect of various concentrations of the candidate on inhibiting (^3H)WIN 35,428 binding is quantified. The concentration of the compound that inhibits 50% of (^3H)WIN 35,428 bound to the transporter (IC50 value) is used as a measure of its affinity for the transporter. A suitable range of concentrations of the candidate typically is about 1 nM up to about 100 nM, more preferably 1 to 10 nM.
(§1) ^3H-WIN 35,428 (^3H-CFT, 2β-carbomethoxy-3β-(4-fluorophenyl)-N-^3H-methyltropane, 79.4-87.0 Ci/mmol) and ^3H-citalopram (86.8 Ci/mmol) is purchased from DuPont-New England Nuclear (Boston, Mass.). HPLC analyses are carried out on a Waters 510 system with detection at 254 nm on a Chiralcel OC column (flow rate: 1 mL/min).

[2] = target: serotonin transporter (SERT) (Homo sapiens, UniProt P31645); experiment: Radioreceptor assay, inhibition of (3H)citalopram binding to the serotonin transporter
Experimental: The serotonin transporter is also detectable in the striatum, the brain region with the highest density of dopamine neurons and in brain regions surrounding the striatum. […] Therefore, a measure of probe affinity of the serotonin transport is conducted by assays paralleling the dopamine transporter assays.
as §1

T1 sequence (Q7JHP9 1-620): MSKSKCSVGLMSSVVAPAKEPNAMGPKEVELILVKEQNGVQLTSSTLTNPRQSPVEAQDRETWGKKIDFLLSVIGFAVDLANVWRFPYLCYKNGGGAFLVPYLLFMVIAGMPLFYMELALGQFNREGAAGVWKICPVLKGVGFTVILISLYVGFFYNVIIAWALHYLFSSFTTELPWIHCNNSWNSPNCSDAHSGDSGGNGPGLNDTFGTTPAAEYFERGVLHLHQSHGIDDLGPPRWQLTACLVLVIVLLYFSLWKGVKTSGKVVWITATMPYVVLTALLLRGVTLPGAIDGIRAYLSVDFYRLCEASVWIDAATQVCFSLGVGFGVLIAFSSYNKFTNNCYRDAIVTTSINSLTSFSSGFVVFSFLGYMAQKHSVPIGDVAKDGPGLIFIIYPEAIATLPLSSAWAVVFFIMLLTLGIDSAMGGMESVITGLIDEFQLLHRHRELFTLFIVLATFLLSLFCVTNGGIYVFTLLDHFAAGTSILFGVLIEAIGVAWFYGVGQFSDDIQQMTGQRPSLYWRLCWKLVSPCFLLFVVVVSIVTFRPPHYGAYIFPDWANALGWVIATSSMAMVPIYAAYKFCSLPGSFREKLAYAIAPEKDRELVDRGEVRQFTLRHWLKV
dopamine transporter (DAT), sequence (Q01959 whole entry, species assumed): as the sequence (Q7JHP9 1-620) above, with M24V, V137I, S194P, G198S, N200D, G201S, P202S counted along it
serotonin transporter (SERT), sequence (P31645 whole entry, species assumed): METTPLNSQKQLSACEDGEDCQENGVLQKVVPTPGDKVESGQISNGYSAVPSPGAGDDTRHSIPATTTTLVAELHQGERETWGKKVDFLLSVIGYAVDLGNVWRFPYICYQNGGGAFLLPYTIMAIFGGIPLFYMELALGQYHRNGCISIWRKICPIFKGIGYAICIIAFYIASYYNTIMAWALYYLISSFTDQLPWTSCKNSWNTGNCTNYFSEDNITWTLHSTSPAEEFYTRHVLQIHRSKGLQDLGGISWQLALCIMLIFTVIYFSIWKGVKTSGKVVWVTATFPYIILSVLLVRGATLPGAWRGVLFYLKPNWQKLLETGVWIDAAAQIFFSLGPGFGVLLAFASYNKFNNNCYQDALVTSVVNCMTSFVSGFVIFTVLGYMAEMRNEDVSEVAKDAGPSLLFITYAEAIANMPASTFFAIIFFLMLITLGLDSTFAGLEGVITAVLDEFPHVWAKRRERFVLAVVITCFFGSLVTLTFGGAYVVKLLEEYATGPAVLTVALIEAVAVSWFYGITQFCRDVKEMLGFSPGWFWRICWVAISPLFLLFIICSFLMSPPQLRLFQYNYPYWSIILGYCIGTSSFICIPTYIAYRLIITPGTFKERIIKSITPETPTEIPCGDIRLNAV

| Compound | melting point | also measured |
| --- | --- | --- |
| CCCC(C(=O)c1ccc(-c2cccs2)cc1)N1CCCC1 (centres unmarked) (as salt: salt) | 220 °C (dec.) |  |
| CCCC(C(=O)c1ccc(NC(C)=O)cc1)N1CCCC1 (centres unmarked) (as salt: salt) | 195 °C (dec.) |  |
| CCCC(C(=O)c1ccc([N+](=O)[O-])cc1)N1CCCC1 (centres unmarked) (as salt: salt) | 189 °C (dec.) |  |
| CCCC(C(=O)c1cccc(C)c1)N1CCCC1 (centres unmarked) (as salt: salt) | 166 °C (dec.) |  |
| CCCC(C(=O)c1ccc(C(F)(F)F)cc1)N1CCCC1 (centres unmarked) (as salt: salt) | 228 °C (dec.) |  |
| CCCC(C(=O)c1ccc2ccccc2c1)N1CCCC1 (centres unmarked) (as salt: salt) | 221 to 223 °C (dec.) |  |
| CCCC(C(=O)c1ccc(I)cc1)N1CCCC1 (centres unmarked) (as salt: salt) | 218 °C (dec.) |  |
| Cc1ccc(C(=O)C(CC(C)C)N2CCCC2)cc1 (centres unmarked) (as salt: salt) | 218 °C (dec.) |  |
| CCCC(C(=O)c1ccc(OC)c(OC)c1)N1CCCC1 (centres unmarked) (as salt: salt) | 177 °C (dec.) |  |
| CC#Cc1ccc(C(=O)C(CCC)N2CCCC2)cc1 (centres unmarked) (as salt: salt) | 231 °C (dec.) |  |
| CCCC(C(=O)c1ccc(F)cc1)N1CCCC1 (centres unmarked) (as salt: salt) | 218 °C (dec.) |  |
| CCC(C(=O)c1ccc(Cl)c(Cl)c1)N1CCCC1 (centres unmarked) (as salt: salt) | 211 °C (dec.) |  |
| CCCC(C(=O)c1ccc(Cl)c(Cl)c1)N1CCCCC1 (centres unmarked) (as salt: salt) | 202 °C (dec.) |  |
| CCCC(C(=O)c1cccc(I)c1)N1CCCC1 (centres unmarked) (as salt: salt) | 203 °C (dec.) |  |
| CCC(CC(=O)c1ccc(Cl)c(Cl)c1)N1CCCC1 (centres unmarked) (as salt: salt) | 104 to 107 °C (dec.) |  |
| CCC(CC(=O)c1ccc(C)cc1)N1CCCC1 (centres unmarked) (as salt: salt) | 97 °C (dec.) |  |

| Compound | melting point | also measured |
| --- | --- | --- |
| CCCC(C(=O)c1ccc(O)c(O)c1)N1CCCC1 (centres unmarked) (as salt: salt) | 181 to 182 °C |  |
| CCCC(C(=O)c1ccc(C#N)cc1)N1CCCC1 (centres unmarked) (as salt: salt) | 197 to 199 °C (dec.) |  |
| C#CCC(C(=O)c1ccc(C)cc1)N1CCCC1 (centres unmarked) (as salt: salt) | 178 °C (dec.) |  |
| CCCC(C(=O)c1ccc(CO)cc1)N1CCCC1 (centres unmarked) (as salt: salt) | 186 to 187 °C (dec.) |  |
| CCCC(N1CCCC1)C(O)(Cc1ccccc1)c1ccc(C)cc1 (centres unmarked) (as salt: salt) | 211 °C (dec.) |  |
| C=CCC(C(=O)c1ccc(C)cc1)N1CCCC1 (centres unmarked) (as salt: salt) | 196 °C (dec.) |  |
| CCCC(C(=O)c1ccc(C(=O)OC)cc1)N1CCCC1 (centres unmarked) (as salt: salt) | 202 °C (dec.) |  |
| CCCC(C(=O)c1ccc(Cl)c(Cl)c1)N1CCCC1 (centres unmarked) (as salt: salt) [Compound O-2390, 2-Pyrrolidin-1-yl-1-(3,4-Dichloro-phenyl)-pentan-1-one] | 195 °C (dec.) |  |
| CCCC(C(=O)c1ccc(Br)cc1)N1CCCC1 (centres unmarked) (as salt: salt) [Compound O-2419, 2-Pyrrolidin-1-yl-1-(4′-bromo-phenyl)-pentan-1-one] | 200 °C (dec.) |  |
| CCCC(C(=O)c1ccc(C)cc1)N1CCCC1 (racemic) (as salt: salt) [Compound O-2371, 2-Pyrrolidin-1-yl-1-p-tolyl-pentan-1-one] | 180 °C (dec.) |  |
| CCCC(C(=O)c1ccc(C)cc1)N1CCCC1 (racemic) [Compound O-2371, 2-Pyrrolidin-1-yl-1-p-tolyl-pentan-1-one] |  | Brain entry and occupancy of DAT sites (in words) (dopamine transporter): most efficient in entering the brain and occupying the majority of DAT sites; [11C]CFT with Compound (binding potential) (dopamine transporter): 0.4551; % Occupancy (dopamine transporter): 74%; % Occupancy, cerebellum levels considered background (dopamine transporter): 100* %; IC50 [1]: 8 nM |
| CCCC(C(=O)c1ccccc1)N1CCCC1 (centres unmarked) [Compound O-2387, 2-Pyrrolidin-1-yl-phenyl-pentan-1-one] |  | [11C]CFT with Compound (binding potential) (dopamine transporter): 0.7885; % Occupancy (dopamine transporter): 64%; IC50 ([1]; affinity column of the PET occupancy table, read-out: DAT Affinity): 13 nM |
| CCCC(C(=O)c1ccc(Cl)c(Cl)c1)N1CCCC1 (centres unmarked) [Compound O-2390, 2-Pyrrolidin-1-yl-1-(3,4-Dichloro-phenyl)-pentan-1-one] |  | [11C]CFT with Compound (binding potential) (dopamine transporter): 0.5898; % Occupancy (dopamine transporter): 56%; IC50 [1]: 8 nM |
| CCCC(C(=O)c1ccc(Br)cc1)N1CCCC1 (centres unmarked) [Compound O-2419, 2-Pyrrolidin-1-yl-1-(4′-bromo-phenyl)-pentan-1-one] |  | [11C]CFT with Compound (binding potential) (dopamine transporter): 1.6025; % Occupancy (dopamine transporter): 33%; IC50 [1]: 8 nM |
| CCC[C@@H](C(=O)c1ccc(C)cc1)N1CCCC1 [Compound O-2442, (2S)-2-Pyrrolidin-1-yl-1-p-tolyl-pentan-1-one] |  | Brain entry and occupancy of DAT sites (in words) (dopamine transporter): most efficient in entering the brain and occupying the majority of DAT sites; [11C]CFT with Compound (binding potential) (dopamine transporter): 0.6112; % Occupancy (dopamine transporter): 70%; % Occupancy, cerebellum levels considered background (dopamine transporter): 100* %; IC50 [1]: 3 nM; DAT inhibition potency, comparison of enantiomers ([1]; 2S versus 2R enantiomer): more potent DAT inhibitor than the 2R-enantiomer; IC50 [2]: > 4000 nM |
